Measured values taken from patent US20240385182A1, “MASKED FLUOROGENIC LIPID COMPOUNDS, LIPID PARTICLES COMPRISING THE SAME, AND METHODS OF USE THEREOF” (Rutgers, The State University of New Jersey, priority 2023, published 2024).

Key:
[1] = Photophysical characterization of probes and uncaged forms (relative fluorescence quantum yield, extinction coefficient, brightness); assay type: physicochemical; conditions: for Brightness: in M⁻¹·cm⁻¹ (unit assumed)
Experimental: The pKa of TEG-TC was determined to be 7.1±0.1 using UV-Vis spectrophotometric measurements. Under the confocal imaging conditions (pH 7.5-8.5 with cell-free assays, pH 7.4 with cells), a substantial population of the 7-hydroxycoumarin should exist in its aryloxide form. The change in coumarin fluorogenicity was assessed upon uncaging the probes from the oxobutylphenyl carbonate by measuring the relative fluorescence quantum yield (ΦFrel) values (Table 2). Coumarin 343 was used as a standard, which has an absolute fluorescence quantum yield ([…]) of 0.63 in ethanol. The ΦFrel values of TEG-TC-ONOO^− (entry 1) and DPPC-TC-ONOO^− (entry 3) were measured as 0.08 and 0.09, respectively. […] The ΦFrel values for TEG-TC (entry 2) and DPPC-TC (entry 4), which were synthesized independently, were measured as 0.66 and 0.64, respectively.
Next, the impact of caging and uncaging of the coumarin or fluorescein moieties on their fluorogenicity was assessed by measuring the relative fluorescence quantum yield (ΦFrel) values (Table 3). Coumarin 343 was used as the standard for measuring ΦFrel of the triazole-coumarin compounds (TEG-TC-H2S, TEG-TC, DPPC-TC-H2S, and DPPC-TC) whereas fluorescein for the triazole-fluorescein compounds (TEG-TF-H2O2, TEG-TF, and DPPC-TF-H2O2, and DPPC-TF). Relative to coumarin 343, whose absolute fluorescence quantum yield (ΦF) is 0.63 in ethanol, ΦFrels of the H2S probes TEG-TC-H2S (entry 1) and DPPC-TC-H2S (entry 3) were determined to be 0.07 and 0.03, respectively.
The pKa of TEG-TC was previously found to be to be 7.1±0.1 using UV-Vis spectrophotometric measurements. Under the fluorescence activation assay conditions that are employed here (Tris 50 mM, pH 7.5), a substantial population of the coumarin moiety is expected to be in its aryloxide anion form. Relative to fluorescein, whose ΦF is 0.79 in ethanol, ΦFrel values of the H2O2 probes TEG-TF-H2O2 (entry 5) and DPPC-TF-H2O2 (entry 7) were determined to be 0.04 and 0.02, respectively.

HeLa and RAW 264.7 cells = assay: MTT cell viability assay; assay type: cell-based; conditions: 8-250 μM, 24-hour period
Experimental: With a feasible liposome preparation and treatment protocol established for live cell imaging, attention was turned to assessing the cytocompatibility of the LNPs, with or without DPPC-TC-ONOO^−, DPPC-TC, and the oxa-spiro[4,5] decenone 6a. A standard 3-(4,5-dimethylthiazol-2-yl)-2,5-diphenyl tetrazolium bromide (MTT) cell viability assay in HeLa and RAW 264.7 cells treated with these molecules (8-250 μM) over a 24-hour period. The dose-response curves provided high IC50 values for each compound: DPPC-TC-ONOO− (≥100 μM), DPPC-TC (≥50 μM), and 6 (≥70 μM).

HeLa cells = assay: Confocal imaging and colocalization in live HeLa cells; assay type: cell-based; conditions: LNPs, no stimulation
Experimental: FIGS. 9A-9E: confocal imaging of lipid environments targeted by ONOO^− in live HeLa cells. Cells were seeded into glass microscope dishes, incubated with LNPs (50 μM) and stained with organelle trackers and/or actin dye prior to imaging. LNPs obtained from a 47.5:47.5:5.0 molar ratio of DOTMA, DOPE, and DPPC-TC-ONOO^−. FIG. 9A: cells treated with LNPs, stimulated with IFN-γ/LPS/PMA. Time coarse images acquired upon PMA treatment. FIG. 9B: cells treated with LNPs and 1400 W. FIG. 9C: cells treated with LNPs, then with 1400 W and IFN-γ/LPS/PMA. FIGS. 9D-9E: quantitative colocalization study of cells treated with LNPs and stimulated with IFN-γ/LPS/PMA. Pearson's correlation coefficient (PCC) was calculated for quantitative assessment. Organelle trackers: ER-Tracker™, MitoTracker™, CellLight™ Golgi-RFP, LysoTracker™. Cell cytoskeleton was assessed with CellMask™ Deep Red Actin Tracking Stain. DPPC-TC channel: 405/475 nm. Scale bars=20 μm (FIGS. 9A-9D) or 5 μm (FIG. 9E). With the utility of DPPC-TC-ONOO^− proven in synthetic protocell membranes, incorporation into live HeLa and RAW 264.7 cells was sought, which are relevant to redox-induced stress and have well-recognized pathways for RNS and ROS production. Lipid nanoparticles (LNPs) (˜100 nm in diameter) was used to deliver DPPC-TC-ONOO− into cells. This method circumvented the limited solubility of DPPC-TC-ONOO− due to the relatively hydrophobic butanone-coumarin motif. LNPs were obtained via sonication from 1,2-di-O-octadecenyl-3-trimethylammonium propane (DOTMA), 1,2-dioleoyl-sn-glycero-3-phosphoethanolamine (DOPE), and DPPC-TC-ONOO− (47.5:47.5:5.0 molar ratio), which were hydrated with a 300 mM sucrose solution. DOTMA and DOPE were chosen as the carrier lipids due to their cationic/zwitterionic natures, which has been postulated to enhance uptake through the cell membrane. The impact of different LNP compositions and incubation times on the cellular incorporation of DPPC-TC-ONOO^− was assessed. […] Specifically, LNPs containing greater than 10 mol % DPPC-TC-ONOO− were considerably more heterogenous in size (up to […] observed, in contrast to ˜100 nm) and nonuniform in vesicle lamellarity. Those with less than 4 mol % DPPC-TC-ONOO− led to insufficient fluorescence signal. To balance these counteracting factors, 5 mol % DPPC-TC-ONOO− was used, with 47.5 mol % DOTMA and DOPE, each. In these initial assays, cells were incubated with LNPs for up to 15 hours to complete the uptake and intracellular localization of DPPC-TC-ONOO−. Shorter incubation times (3-to-5 hours) led to its uptake but not subcellular localization. […] However, high serum concentration in DMEM caused interference between LNPs and serum-protein, resulting in aggregate formation as observed by microscopy. To overcome this obstacle, LNPs (50 μM) were used in a mixture of 2/3 volumetric ratio of sucrose solution and Opti-MEM™, a reduced serum medium known to increase the efficiency of lipofection. […] For a physiologically relevant stress model, the standard stimulation condition involving IFN-γ/LPS/PMA was employed. Treatment of cells with IFN-γ/LPS leads to the endogenous production of nitric oxide and PMA provokes increased levels of superoxide. These two reactive species combine to form peroxynitrite, as described elsewhere herein. […] The intracellular redox selectivity of DPPC-TC-ONOO^− was also assessed using N-(3-(aminomethyl)benzyl)-acetamidine, known as 1400 W, which inhibits the production of NO· by irreversibly binding to iNOS. […] To determine whether DPPC-TC-ONOO^− localizes and functions at a specific subcellular compartment in HeLa, a comprehensive colocalization study was performed with dyes specific for lipid-rich and membrane-enclosed organelles, including the ER, mitochondrion, Golgi apparatus, and lysosome (FIGS. 9D-9E). In addition, actin stain was used to gain a visual insight into the cytoskeletal structure of the whole cell. […]

[2] = Fluorescence activation and LoD of TEG-TC-H2S with H2S in Tris buffer
Experimental: FIGS. 13A-13D: specificity (FIGS. 13A-13B) and limit of detection (LoD) (FIGS. 13C-13D) of TEG-TC-H2S and TEG-TF-H2O2. LoD measurements for the probes TEG-TC-H2S (390/475 nm) and TEG-TF-H2O2 (485/525 nm) were performed in Tris buffer (50 mM, pH 7.5). Error bars represent the standard deviation; n=3. Single-tailed Student's t test: *, P<0.05; **, P<0.01; ***, P<0.001; ****, P<0.0001.
(§1) The redox-specificities of the non-amphiphilic probes, TEG-TC-H2S or TEG-TF-H2O2, were assessed by subjecting them to various RSS or ROS (FIGS. 13A-13B). Change in fluorescence intensity following excitation of each sample containing the respective probe was measured over 120 minutes of incubation and presented based on the signal-to-background ratio F/F0, where F and F0 are defined as the fluorescence with and without the redox species. The F/F0 of the untreated samples were set to 1 for comparisons. […] Samples containing TEG-TF-H2O2 and treated with 100 μM H2O2 presented a steady fluorescence enhancement within 2 hours, resulting in 4.4-fold higher fluorescence than those of the untreated samples (FIG. 13B).
(§2) The specificity of TEG-TC-H2S toward H2S was evaluated by comparing its reactivity against different RSS, cysteine (Cys), glutathione (GSH), sulfite (SO3^2−), and thiosulfate (S2O3^2−). At 1 mM initial concentration and a total incubation time of 2 hours, these sulfur species induced an increase in coumarin fluorescence by less than 25% compared to the untreated sample (FIG. 13A). […] The specificity of TEG-TF-H2O2 toward H2O2 was also assessed, by incubating the samples containing TEG-TF-H2O2 with 100 μM either hydroxyl radical (·OH), nitric oxide (NO), or superoxide radical (O2·^−) for 2 hours. Among these three reactive oxygen species, ·OH induced the highest fluorescence increase (2.2-fold), which was lower than that for H2O2 (4.4-fold). The relatively low yet observable reactivity of ·OH may have been due, in large part, to the residual unreacted H2O2 used for generating ·OH. […]

[3] = Specificity of TEG-TC-H2S against other RSS
Experimental: as §1
as §2, with “hours.” for “hours. Among these three reactive oxygen species, ·OH induced the highest fluorescence increase (2.2-fold), which was lower than that for H2O2 (4.4-fold). The relatively low yet observable reactivity of ·OH may have been due, in large part, to the residual unreacted H2O2 used for generating ·OH.”

[4] = Table 3, brightness compared to that of DPPC-TC-H2S
[5] = Table 3, brightness compared to that of DPPC-TF-H2O2

Emmax [1] [nm] | Exmax [1] [nm] | Ext. Coeff. [1] [M⁻¹ cm⁻¹] | enhanced brightness, uncaging product vs caged probe [1] [fold] | Relative Brightness ([1]; Table 2, DPPC-TC-ONOO^− = 1.0) | Relative Brightness [1, 4] | Brightness [1] | Quantum Yield (relative fluorescence quantum yield ΦFrel) ([1]; standard coumarin 343) | IC50 (HeLa and RAW 264.7 cells) [µM] | Relative Brightness [1, 5] | Quantum Yield (relative fluorescence quantum yield ΦFrel) ([1]; standard fluorescein) | Molecule | fluorescence at 405/475 nm (HeLa cells) | fluorescence compared to the sample untreated ([2]; 1 mM H2S, 2 hours of incubation, Tris pH 7.5) [fold] | increase in fluorescence intensity ([2]; H2S 1 mM, 2 hours) [%] | LoD ([2]; minimum H2S concentration at which F is statistically higher than F0, 390/475 nm, Tris 50 mM pH 7.5) [µM] | fluorescence activation in the presence of H2S compared to the other RSS [3] [fold] | increase in coumarin fluorescence compared to the untreated sample ([3]; Cys, GSH, SO3^2−, S2O3^2− at 1 mM, 2 hours)
472.0 | 398.0 | 13749 | 120 | 35.1 | 122.2 | 8799 | 0.64 | ≥ 50 |  |  | CCCCCCCCCCCCCCCC(=O)OCC(COP(=O)([O-])OCC[N+](C)(C)Cc1cn(-c2cc3ccc(O)cc3oc2=O)nn1)OC(=O)CCCCCCCCCCCCCCC (racemic) [DPPC-TC] | strong coumarin fluorescence |  |  |  |  | 
523.6 | 498.1 | 28990 |  |  |  | 18264 |  |  | 85.3 | 0.63 | CCCCCCCCCCCCCCCC(=O)OCC(COP(=O)([O-])OCC[N+](C)(C)Cc1cn(-c2ccc3c(c2)C(=O)OC32c3ccc(O)cc3Oc3cc(O)ccc32)nn1)OC(=O)CCCCCCCCCCCCCCC (racemic) [DPPC-TF] |  |  |  |  |  | 
475.5 | 392.3 | 5347 |  |  | 5.2 | 374 | 0.07 |  |  |  | [N-]=[N+]=Nc1ccc(COc2ccc3cc(-n4cc(COCCOCCOCCO)nn4)c(=O)oc3c2)cc1 [TEG-TC-H2S] |  | 2.2 | 120 | 100 | ≥ 5 | less than 25%
522.6 | 494.3 | 35982 |  |  |  | 26267 |  |  | 122.7 | 0.73 | O=C1OC2(c3ccc(O)cc3Oc3cc(O)ccc32)c2ccc(-n3cc(COCCOCCOCCO)nn3)cc21 [TEG-TF] |  |  |  |  |  | 
 |  |  |  |  |  |  |  | ≥ 70 |  |  | oxa-spiro[4,5] decenone [Compound 6] |  |  |  |  |  | 
